These molecules were tested against Mu-type opioid receptor (Homo sapiens, UniProt P35372) (assay: FLIPR Calcium Assay).
Experimental: One day before the assay, CORNING black with clear flat bottom 96-well assay plates were coated with a 0.1 mg/mL Poly-L-Lysine solution. CHO-K1/MOR/Gα15 cells were suspended in the F12 medium and plated at a density of 8×10^4 cells/well in 200 μL medium. Cells were incubated in a humidified atmosphere of 10% CO2 at 37° C. overnight so as to reach an 80-90% confluent cell monolayer before assay. At the day of assay, 150 μL medium/well was removed from plate. To each well, 50 μL FLIPR calcium assay reagent dissolved in 1× assay buffer (HBSS: KCl 5 mM, KH2PO4 0.3 mM, NaCl 138 mM, NaHCO3 4 mM, Na2HPO4 0.3 mM, d-glucose 5.6 mM, with additional 20 mM HEPES and 13 mM CaCl2, pH 7.4), with 2.5 mM probenecid was added and the plate was incubated at 37° C. for 1 h. Compounds and other reagents were dissolved in the assay buffer. Using a FlexStationIII (Molecular Devices Corp.), the [Ca2+]i fluorescence increases after robotic injections of compounds or other reagents were monitored every 1.52 s interval with excitation wavelength at 485 nm and with emission wavelength at 525 nm. The [Ca2+]i fluorescence was measured up to 90 s after agonist injection.

Sequence of Mu-type opioid receptor (P35372 whole entry): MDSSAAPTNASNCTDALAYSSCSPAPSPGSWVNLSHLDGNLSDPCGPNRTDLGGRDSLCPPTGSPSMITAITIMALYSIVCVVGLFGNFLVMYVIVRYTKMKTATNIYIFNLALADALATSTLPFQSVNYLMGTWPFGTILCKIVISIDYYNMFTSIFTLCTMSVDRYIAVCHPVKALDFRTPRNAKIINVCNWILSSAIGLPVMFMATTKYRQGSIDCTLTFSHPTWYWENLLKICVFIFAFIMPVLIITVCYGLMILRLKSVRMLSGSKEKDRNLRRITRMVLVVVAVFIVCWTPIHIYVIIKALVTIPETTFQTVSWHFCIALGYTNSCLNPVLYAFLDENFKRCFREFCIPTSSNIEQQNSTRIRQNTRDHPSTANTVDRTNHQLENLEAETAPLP

SMILES | EC50 [µM]
COc1ccc(F)cc1N1C(=O)CSC1c1ccc(F)c(F)c1 (stereo not drawn) [US10544113, No. 4] | 3.3
COc1ccccc1N1C(=O)CSC1c1cccc(F)c1 (stereo not drawn) [US10544113, No. 1] | 12.4
Cc1cc(C(=O)NCCc2ccccc2Cl)ccc1N1C(=O)CSC1c1ccc(F)cc1 (stereo not drawn) [US10544113, No. 384] | 6.6
COc1ccc(F)cc1N1C(=O)CSC1c1ccc(F)cc1 (stereo not drawn) [US10544113, No. 6] | 3.9
COc1ccccc1N1C(=O)CSC1c1ccc(F)cc1 (stereo not drawn) [US10544113, No. 2] | 19
COc1cc(N2C(=O)CSC2c2ccc(F)cc2)cc(OC)c1OC (stereo not drawn) [US10544113, No. 16] | 8.3
Cc1cccc(F)c1N1C(=O)CSC1c1ccc(F)cc1 (stereo not drawn) [US10544113, No. 108] | 3.3
COc1ccc(F)cc1N1C(=O)CSC1c1cccc(F)c1 (stereo not drawn) [US10544113, No. 5] | 5.2

The next lines start with the values.

EC50 [µM] | SMILES
7 | Cc1cc(C(=O)NCCN2CCOCC2)ccc1N1C(=O)CSC1c1ccc(F)cc1 (stereo not drawn) [US10544113, No. 344]
2.9 | Cc1cc(C(=O)OCCN2CCCC2)ccc1N1C(=O)CSC1c1ccc(F)cc1 (stereo not drawn) [US10544113, No. 294]
11.2 | Cc1cc(C(=O)OCCCc2ccccc2)ccc1N1C(=O)CSC1c1ccc(F)cc1 (stereo not drawn) [US10544113, No. 253]
7.1 | COCCOCCOC(=O)c1ccc(N2C(=O)CSC2c2ccc(F)cc2)c(C)c1 (stereo not drawn) [US10544113, No. 280]
3.7 | COCCCNC(=O)c1ccc(N2C(=O)CSC2c2ccc(F)cc2)c(C)c1 (stereo not drawn) [US10544113, No. 343]

Reference: BindingDB's records for patent US10544113 (National Health Research Institute; Regents of the …, 2020)
